Test results reported in ChEMBL document CHEMBL1146301, “Phenylglycine as a novel P2 scaffold in hepatitis C virus NS3 protease inhibitors” (Bioorg Med Chem, 2007).
pEC50, pKi: −log10 of the molar value. Starred links: 1 amine or outer side, 2 acyl side, 3 side chain; linkers in the order of their positions; H or OH if unused. Non-standard residues stand in square brackets, D forms with d. Residues, ends and D or L forms follow the SMILES beside them. Chg = N[C@H](C(=O)O)C1CCCCC1; Suc = O=C(CCC(=O)[*:2])[*:1]

Tests used:
[1] = Inhibition of HCV NS3 protease by FRET assay; design: species or system Hepacivirus hominis
[2] = tested on: Hepatitis C virus; assay: Antiviral activity against HCV in replicon assay; assay type: functional, Hepacivirus hominis; details: read-out: ED50 (the source's name)
[3] = tested on: Hepatitis C virus; assay: Inhibition of HCV 1b NS3 protease; design: species or system Hepatitis C virus subtype 1b
[4] = molecular target: NS3 (Hepatitis C virus, UniProt A3EZJ3); assay: Inhibition of HCV 1a NS3 protease; design: species or system Hepatitis C virus subtype 1a
Chain of NS3 (A3EZJ3 whole entry): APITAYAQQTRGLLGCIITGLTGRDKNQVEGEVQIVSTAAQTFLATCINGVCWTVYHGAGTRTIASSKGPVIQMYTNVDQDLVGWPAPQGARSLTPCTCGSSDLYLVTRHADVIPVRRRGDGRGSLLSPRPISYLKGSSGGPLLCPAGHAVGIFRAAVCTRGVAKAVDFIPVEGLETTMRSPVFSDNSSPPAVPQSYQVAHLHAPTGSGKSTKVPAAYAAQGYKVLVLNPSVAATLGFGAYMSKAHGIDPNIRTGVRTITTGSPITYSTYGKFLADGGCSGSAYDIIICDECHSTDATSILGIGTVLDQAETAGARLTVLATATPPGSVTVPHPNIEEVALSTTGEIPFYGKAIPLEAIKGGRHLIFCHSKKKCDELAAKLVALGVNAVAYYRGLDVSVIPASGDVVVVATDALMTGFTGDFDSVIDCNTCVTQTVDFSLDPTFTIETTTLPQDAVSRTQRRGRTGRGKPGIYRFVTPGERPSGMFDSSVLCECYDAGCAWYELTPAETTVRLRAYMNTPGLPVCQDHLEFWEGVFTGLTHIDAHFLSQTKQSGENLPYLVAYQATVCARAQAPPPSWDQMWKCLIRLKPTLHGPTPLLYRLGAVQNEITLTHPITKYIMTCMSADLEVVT

Row | pKi [1] | pEC50 [2] | pKi [4] | SMILES | pKi [3]
1 | 5.55 | – | – | COc1ccc2c(Oc3ccc(C(NC(=O)[C@@H](NC(=O)OC(C)(C)C)C(C)(C)C)C(=O)N[C@@H](CC(F)F)C(=O)O)cc3)cc(-c3ccccc3)nc2c1 (stereo partly specified) | –
2 | 7.02 | < 5.00 | – | COc1ccc2c(Oc3ccc([C@@H]4NC(=O)[C@@H](NC(=O)OC(C)(C)C)CCCCC/C=C\[C@@H]5C[C@@]5(C(=O)NS(=O)(=O)c5ccccc5)NC4=O)cc3)cc(-c3ccccc3)nc2c1 | –
3 | 5.92 | < 5.00 | – | COc1ccc2c(Oc3ccc([C@H](NC(=O)[C@@H](NC(=O)OC(C)(C)C)C(C)(C)C)C(=O)NC4(C(=O)NS(=O)(=O)c5ccccc5)CC4)cc3)cc(-c3ccccc3)nc2c1 | –
4 | 6.52 | – | – | CCC[C@H](NC(=O)[C@@H]1C[C@@H](Oc2cc(-c3ccccc3)nc3cc(OC)ccc23)CN1C(=O)[C@@H](NC(=O)OC(C)(C)C)C(C)C)C(=O)NS(=O)(=O)c1ccccc1 | –
5 | – | – | 9.52 | COc1ccc2c(O[C@@H]3C[C@H]4C(=O)N[C@]5(C(=O)O)C[C@H]5/C=C\CCCCC[C@H](NC(=O)OC5CCCC5)C(=O)N4C3)cc(-c3csc(NC(C)C)n3)nc2c1 [CILUPREVIR] | 9.18
6 | 6.70 | – | – | C=C[C@@H]1C[C@]1(NC(=O)[C@@H](NC(=O)[C@@H](NC(=O)OC(C)(C)C)C(C)C)c1ccc(Oc2cc(-c3ccccc3)nc3cc(OC)ccc23)cc1)C(=O)NS(=O)(=O)C1CC1 | –
7 | 6.57 | < 5.00 | – | C=C[C@@H]1C[C@]1(NC(=O)[C@@H](NC(=O)[C@@H](NC(=O)OC(C)(C)C)C(C)C)c1ccc(Oc2cc(-c3ccccc3)nc3cc(OC)ccc23)cc1)C(=O)NS(=O)(=O)c1ccccc1 | –
8 | 4.47 | – | – | C=C[C@@H]1C[C@]1(NC(=O)[C@H](NC(=O)[C@@H](NC(=O)OC(C)(C)C)C(C)(C)C)c1ccc(OC)cc1)C(=O)NS(=O)(=O)C1CC1 | –
9 | 5.15 | – | – | C=C[C@@H]1C[C@]1(NC(=O)[C@@H](NC(=O)[C@@H](NC(=O)OC(C)(C)C)C(C)(C)C)c1ccc(Oc2ccccn2)cc1)C(=O)NS(=O)(=O)C1CC1 | –
10 | 6.62 | – | – | CC(C)(C)OC(=O)N[C@H]1CCCCC/C=C\[C@@H]2C[C@@]2(C(=O)NS(=O)(=O)C2CC2)NC(=O)[C@H](c2ccc(Oc3nc(-c4ccncc4)cc4ccccc34)cc2)NC1=O | –
11 | 6.64 | < 5.00 | – | C=C[C@@H]1C[C@]1(NC(=O)[C@@H](NC(=O)[C@@H](NC(=O)OC(C)(C)C)C(C)(C)C)c1ccc(Oc2cc(-c3ccccc3)nc3cc(OC)ccc23)cc1)C(=O)NS(=O)(=O)c1ccccc1 | –
12 | 5.89 | – | – | CC(C)(C)OC(=O)N[C@H]1CCCCC/C=C\[C@@H]2C[C@@]2(C(=O)O)NC(=O)[C@H](c2ccc(Oc3nc(-c4ccncc4)cc4ccccc34)cc2)NC1=O | –
13 | 6.54 | < 5.00 | – | C=C[C@@H]1C[C@]1(NC(=O)[C@@H](NC(=O)[C@@H](NC(=O)OC(C)(C)C)C(C)(C)C)c1ccc(Oc2nc(-c3ccncc3)cc3ccccc23)cc1)C(=O)NS(=O)(=O)C1CC1 | –
14 | 5.59 | – | – | C=C[C@@H]1C[C@]1(NC(=O)[C@@H](NC(=O)[C@@H](NC(=O)OC(C)(C)C)C(C)(C)C)c1ccc(Oc2cccc(Cl)n2)cc1)C(=O)NS(=O)(=O)C1CC1 | –
15 | 7.12 | 5.34 | – | COc1ccc2c(Oc3ccc([C@@H]4NC(=O)[C@@H](NC(=O)OC(C)(C)C)CCCCC/C=C\[C@@H]5C[C@@]5(C(=O)NS(=O)(=O)C5CC5)NC4=O)cc3)cc(-c3ccccc3)nc2c1 | –
16 | 6.64 | < 5.00 | – | CCC[C@H](NC(=O)[C@@H](NC(=O)[C@@H](NC(=O)OC(C)(C)C)C(C)(C)C)c1ccc(Oc2cc(-c3ccccc3)nc3cc(OC)ccc23)cc1)C(=O)NS(=O)(=O)c1ccccc1 | –

Row | pKi [1] | pEC50 [2] | pKi [4] | SMILES | pKi [3]
17 | 9.12 | – | – | C=C[C@@H]1C[C@]1(NC(=O)[C@@H]1C[C@@H](Oc2cc(-c3ccccc3)nc3cc(OC)ccc23)CN1C(=O)[C@@H](NC(=O)OC(C)(C)C)C(C)C)C(=O)NS(=O)(=O)c1ccccc1 | –
18 | 6.55 | – | – | CCC[C@H](NC(=O)[C@@H](NC(=O)[C@@H](NC(=O)OC(C)(C)C)C(C)C)c1ccc(Oc2cc(-c3ccccc3)nc3cc(OC)ccc23)cc1)C(=O)NS(=O)(=O)c1ccccc1 | –
19 | 6.10 | < 5.00 | – | COc1ccc2c(Oc3ccc([C@@H]4NC(=O)[C@@H](NC(=O)OC(C)(C)C)CCCCC/C=C\[C@@H]5C[C@@]5(C(=O)O)NC4=O)cc3)cc(-c3ccccc3)nc2c1 | –
20 | 5.27 | – | – | C=C[C@@H]1C[C@]1(NC(=O)[C@@H](NC(=O)[C@@H](NC(=O)OC(C)(C)C)C(C)(C)C)c1ccc(OC)cc1)C(=O)NS(=O)(=O)C1CC1 | –
21 | 6.00 | – | – | CC[C@@H](C)[C@H](NC(=O)[C@@H](NC(=O)CCC(=O)O)C1CCCCC1)C(=O)N[C@H](C(=O)N[C@@H](CS)C(=O)O)c1ccccc1 | –
22 | 6.39 | < 5.00 | – | C=C[C@@H]1C[C@]1(NC(=O)[C@@H](NC(=O)[C@@H](NC(=O)OC(C)(C)C)C(C)(C)C)c1ccc(Oc2nc(Cl)cc3ccccc23)cc1)C(=O)NS(=O)(=O)C1CC1 | –
23 | 6.40 | < 5.00 | – | C=C[C@@H]1C[C@]1(NC(=O)[C@H](NC(=O)[C@@H](NC(=O)OC(C)(C)C)C(C)C)c1ccc(Oc2cc(-c3ccccc3)nc3cc(OC)ccc23)cc1)C(=O)NS(=O)(=O)c1ccccc1 | –
24 | 3.89 | – | – | CCC[C@H](NC(=O)[C@@H](NC(=O)[C@@H](NC(=O)OC(C)(C)C)C(C)C)c1ccc(O)cc1)C(=O)NS(=O)(=O)c1ccccc1 | –
25 | 4.64 | – | – | CC[C@H](C)[C@H](NC(=O)[C@@H](NC(=O)CCC(=O)O)C1CCCCC1)C(=O)N1CCC[C@H]1C(=O)N[C@@H](CS)C(=O)O (Suc-[Chg]IPC-OH) | –
26 | 5.96 | – | – | C=C[C@@H]1C[C@]1(NC(=O)[C@H](NC(=O)[C@@H](NC(=O)OC(C)(C)C)C(C)(C)C)c1ccc(Oc2nc(Cl)cc3ccccc23)cc1)C(=O)NS(=O)(=O)C1CC1 | –
27 | 7.13 | < 5.00 | – | CC(C)(C)OC(=O)N[C@H]1CCCCC/C=C\[C@@H]2C[C@@]2(C(=O)NS(=O)(=O)C2CC2)NC(=O)[C@H](c2ccc(Oc3nc(Cl)cc4ccccc34)cc2)NC1=O | –
28 | 6.74 | < 5.00 | – | C=C[C@@H]1C[C@]1(NC(=O)[C@@H](NC(=O)[C@@H](NC(=O)OC(C)(C)C)C(C)(C)C)c1ccc(Oc2cc(-c3ccccc3)nc3cc(OC)ccc23)cc1)C(=O)NS(=O)(=O)C1CC1 | –
29 | 6.11 | < 5.00 | – | COc1ccc2c(Oc3ccc([C@H](NC(=O)[C@@H](NC(=O)OC(C)(C)C)C(C)(C)C)C(=O)N[C@@H](CC(F)F)C(=O)NS(=O)(=O)C4CC4)cc3)cc(-c3ccccc3)nc2c1 | –
30 | 5.96 | – | – | CC(C)(C)OC(=O)N[C@H]1CCCCC/C=C\[C@@H]2C[C@@]2(C(=O)O)NC(=O)[C@H](c2ccc(Oc3nc(Cl)cc4ccccc34)cc2)NC1=O | –
31 | 5.62 | 5.07 | – | C=C[C@@H]1C[C@]1(NC(=O)C(NC(=O)[C@@H](NC(=O)OC(C)(C)C)C(C)C)c1ccc(Oc2cc(-c3ccccc3)nc3cc(OC)ccc23)cc1)C(=O)O (stereo partly specified) | –
